Among the data in patent publication US11865176B2, “Compositions and methods of modulating anti-tumor immunity” (Dana-Farber Cancer Institute, Inc., priority 2016, dated 2024) are Zscore_1, Zscore_2 and Zscore_AVG values, retold here.

For the assay, the system named is PD-1-overexpressing Jurkat cells. Put plainly: Small molecule screen: IL2 secretion (AlphaLISA) from stimulated PD-1-overexpressing Jurkat cells. The assay is classed as cell-based, human. The note with it: 3.3 μM compound; for Zscore_1 / Zscore_2: IL2 level, α-CD3/α-CD28/α-PD-1 beads; for Zscore_1: replicate 1; for Zscore_2: replicate 2; for Zscore_AVG: average of replicate Z scores. A digest of the protocol:
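Cells (100,000/well) with compound at 3.3 μM final, stimulated by α-CD3/α-CD28/α-PD-1 Dynabeads at an 8:1 bead:cell ratio. IL2 in supernatants measured by AlphaLISA. Hits scored ≥3 SD from the mean of DMSO-treated, α-PD-1-bead-stimulated controls.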
Background: Alpha assays give light when donor and acceptor beads are brought close together.

Regarding `O=C(Nc1cccc(Nc2cc(Nc3cccc(C(F)(F)F)c3)ncn2)c1)C1CC1` [EGFR Inhibitor], the Zscore_1 worked out at 2.026, the Zscore_2 amounted to 1.568 and the Zscore_AVG is 1.797.

For the compound `COc1cc2ncnc(Nc3ccc(OCc4ccccc4)cc3)c2cc1OC` [EGFR/ErbB-2 Inhibitor], the Zscore_1 is 0.09156, the Zscore_2 is on record as 4.015 and the Zscore_AVG is 2.053.

As to `CC#CC(=O)Nc1cc2c(Nc3ccc(F)c(Cl)c3)ncnc2cn1` [EGFR/ErbB-2/ErbB-4 Inhibitor], the Zscore_1 worked out at 0.4572, the Zscore_2 was 0.3338 and the Zscore_AVG is recorded as 0.3955.

Regarding `Nc1[nH]nc2nnc(-c3c(-c4ccccc4)nn4ccccc34)cc12` [ERK Inhibitor II, FR180204], the Zscore_1 is on record as −2.073, the Zscore_2 was −4.806 and the Zscore_AVG is on record as −3.439.

As to `O=c1[nH][nH]c2nnc(-c3c(-c4ccccc4)nn4ccccc34)cc12` [ERK Inhibitor II, Negative Control], the Zscore_1 is reported as −1.778, the Zscore_2 turned out to be 1.052 and the Zscore_AVG is given as −0.3634.

With `N/C(=N\[N+](=O)[O-])N/N=C\c1ccc(-c2cccc([N+](=O)[O-])c2)o1` [ERK Inhibitor III], the Zscore_1 amounted to 0.9783, the Zscore_2 is reported as 2.555 and the Zscore_AVG is reported as 1.767.

As to `O=C1c2ccccc2-[n+]2ccc3c([nH]c4ccccc43)c21` [Fascaplysin, synthetic], the Zscore_1 is reported as −6.289, the Zscore_2 is given as −8.222 and the Zscore_AVG was −7.256.

With `c1ccc(-c2cnc(Nc3ccc(OCCN4CCCC4)cc3)s2)cc1` [Flt-3 Inhibitor III], the Zscore_1 is on record as 1.171, the Zscore_2 is 3.361 and the Zscore_AVG stood at 2.266.

With `O=C(c1cc2cc(O)ccc2[nH]1)c1cc2cc(O)ccc2[nH]1` [Flt-3 Inhibitor II], the Zscore_1 is 1.536, the Zscore_2 is 2.085 and the Zscore_AVG is reported as 1.81.

In turn, `COc1ccc(C(=O)Nc2sc3c(c2C(N)=O)CCCC3)cc1OC` [Flt-3 Inhibitor] returned a Zscore_1 of 1.516, a Zscore_2 of 2.085 and a Zscore_AVG of 1.801.

For `Cn1c2ccccc2c2c3c(c4c5ccccc5n(CCC#N)c4c21)CNC3=O` [G? 6976], the Zscore_1 is −6.424, the Zscore_2 was −4.191 and the Zscore_AVG is listed as −5.308.

`COc1ccc2c(c1)c(C1=C(c3c[nH]c4ccccc34)C(=O)NC1=O)cn2CCCN(C)C` [G? 6983]: the Zscore_1 is −9.778, the Zscore_2 is reported as −9.075 and the Zscore_AVG was −9.426.

As to `CN1C(=O)/C(=C2\Nc3ccccc3\C2=N/O)c2ccc(Br)cc21` [GSK-3 Inhibitor IX, Control, MeBIO], the Zscore_1 was found to be 1.104, the Zscore_2 is 1.769 and the Zscore_AVG is given as 1.437.

The compound `O=C1Nc2cc(Br)ccc2/C1=C1/Nc2ccccc2/C1=N\O` [GSK-3 Inhibitor IX] gave a Zscore_1 of 25.07, a Zscore_2 of 34.88 and a Zscore_AVG of 29.98.

Turning to `Cc1cc(Nc2nc(-c3ccccc3)nc3ccccc23)n[nH]1` [GSK-3 Inhibitor XIII], the Zscore_1 is on record as −2.535, the Zscore_2 was −3.925 and the Zscore_AVG is listed as −3.23.

In the case of `CC(=O)O/N=C1/C(=C2/C(=O)Nc3cc(Br)ccc32)Nc2ccccc21` [GSK-3 Inhibitor X], the Zscore_1 stood at 28.58, the Zscore_2 stood at 35.89 and the Zscore_AVG was 32.23.

For `Ic1cccc(CSc2nnc(-c3ccncc3)o2)c1` [GSK-3b Inhibitor II], the Zscore_1 was −2.376, the Zscore_2 is recorded as −0.4154 and the Zscore_AVG is −1.396.

`Cn1sc(=O)n(Cc2ccccc2)c1=O` [GSK-3b Inhibitor I]: the Zscore_1 was −1.327, the Zscore_2 was −2.222 and the Zscore_AVG is recorded as −1.774.

Regarding `COc1ccc(CNC(=O)Nc2ncc([N+](=O)[O-])s2)cc1` [GSK-3b Inhibitor VIII], the Zscore_1 was 1.017, the Zscore_2 turned out to be 0.5916 and the Zscore_AVG is listed as 0.8042.

In the case of `Nc1cccc(-c2cc3c(Oc4cccc(O)c4)ncnc3[nH]2)c1` [GSK-3b Inhibitor XII, TWS119], the Zscore_1 is reported as −1.059, the Zscore_2 is recorded as −1.321 and the Zscore_AVG is on record as −1.19.

Consider `O=C1NC(=O)C(c2cn(CCCO)c3ncccc23)=C1c1cnccn1` [GSK-3b Inhibitor XI], for which the Zscore_1 stood at 5.72, the Zscore_2 amounted to 4.871 and the Zscore_AVG is on record as 5.296.

On to `CNCCNS(=O)(=O)c1cccc2cnccc12.Cl.Cl` [H-8, Dihydrochloride], for which the Zscore_1 is recorded as −1.014, the Zscore_2 is given as −2.509 and the Zscore_AVG was −1.761.

Regarding `Cl.Cl.O=S(=O)(NCCNC/C=C/c1ccc(Br)cc1)c1cccc2cnccc12` [H-89, Dihydrochloride], the Zscore_1 was −3.268, the Zscore_2 is −0.4334 and the Zscore_AVG is recorded as −1.851.

In the case of `Cl.Cl.N=C(N)NCCNS(=O)(=O)c1cccc2cnccc12` [HA 1004, Dihydrochloride], the Zscore_1 stood at 0.08457, the Zscore_2 was −0.6711 and the Zscore_AVG was −0.2933.

Take `Cl.Cl.O=S(=O)(c1cccc2cnccc12)N1CCCNCC1` [HA 1077, Dihydrochloride Fasudil]: the Zscore_1 is recorded as −1.883, the Zscore_2 is given as −3.234 and the Zscore_AVG is on record as −2.559.

On to `CO[C@H]1[C@@H](OC)C[C@H](C)[C@@H](OC)C2=CC(=O)C=C(NC(=O)/C(C)=C/C=C\[C@H](OC)[C@@H](OC(N)=O)/C(C)=C/[C@@H]1C)C2=O` [Herbimycin A, Streptomyces sp.], for which the Zscore_1 stood at 5.643, the Zscore_2 was 3.663 and the Zscore_AVG worked out at 4.653.

Regarding `COc1cc(OC)c(C=C2C(O)=Nc3ccccc32)c(OC)c1` [IC261], the Zscore_1 was −0.7866, the Zscore_2 is on record as −1.136 and the Zscore_AVG was −0.9616.

Take `COc1ccc(Cl)cc1NC(=O)Nc1cc(C)nc2ccccc12` [IGF-1R Inhibitor II]: the Zscore_1 worked out at 0.516, the Zscore_2 was −0.987 and the Zscore_AVG was −0.2355.

Consider `O=C(Nc1cc(Cl)cc2c1[nH]c1cnccc12)c1cccnc1` [IKK Inhibitor X], for which the Zscore_1 was −4.959, the Zscore_2 is −5.349 and the Zscore_AVG is −5.154.

In the case of `NC(=O)Nc1sc(-c2ccc(F)cc2)cc1C(N)=O` [IKK-2 Inhibitor IV], the Zscore_1 is −1.558, the Zscore_2 is given as −4.19 and the Zscore_AVG is on record as −2.874.

As for `N#Cc1c(C2CCNCC2)cc(-c2c(O)cccc2OCC2CC2)nc1N` [IKK-2 Inhibitor VIII], the Zscore_1 was −0.6795, the Zscore_2 is given as −0.365 and the Zscore_AVG is −0.5222.

`NC(=O)Nc1sc(-c2ccccc2)cc1C(N)=O` [IKK-2 Inhibitor VI]: the Zscore_1 was −5.576, the Zscore_2 is −7.212 and the Zscore_AVG is listed as −6.394.

`O=C(Nc1cc(C(F)(F)F)cc(C(F)(F)F)c1)c1cc(Cl)ccc1O` [IKK-2 Inhibitor V]: the Zscore_1 is −5.485, the Zscore_2 is on record as −7.792 and the Zscore_AVG is listed as −6.638.

In turn, `COc1cc2ncn(-c3cc(OCc4ccccc4S(C)(=O)=O)c(C#N)s3)c2cc1OC` [IKK-3 Inhibitor IX] displayed a Zscore_1 of 3.754, a Zscore_2 of 2.454 and a Zscore_AVG of 3.104.

Regarding `O=[N+]([O-])c1ccc(CNc2nc(NCc3cccc(C(F)(F)F)c3)nc3nc[nH]c23)cc1` [IP3K Inhibitor], the Zscore_1 came to 1.006, the Zscore_2 is on record as −0.0969 and the Zscore_AVG was found to be 0.4547.

Turning to `O=C(Nc1nc2ccccc2n1CCN1CCOCC1)c1cccc([N+](=O)[O-])c1` [IRAK-1/4 Inhibitor], the Zscore_1 is reported as −0.5038, the Zscore_2 is recorded as −1.963 and the Zscore_AVG is recorded as −1.233.

`O=C1Nc2ccccc2/C1=C1/Nc2ccccc2/C1=N\OCC(O)CO` (stereo not drawn) [Indirubin Derivative E804]: the Zscore_1 was 20.78, the Zscore_2 came out at 24.43 and the Zscore_AVG was 22.6.

In turn, `O=C1Nc2ccc(I)cc2/C1=C1/Nc2ccccc2/C1=N\O` [Indirubin-3′-monoxime, 5-Iodo-] came in with a Zscore_1 of 10.18, a Zscore_2 of 17.16 and a Zscore_AVG of 13.67.

Take `COc1cc2ncnc(Nc3ccc(O)c(Br)c3)c2cc1OC` [JAK3 Inhibitor II]: the Zscore_1 was −0.7783, the Zscore_2 is reported as −1.36 and the Zscore_AVG is −1.069.

`CC(C)N(CCC(=O)c1ccc2ccccc2c1)Cc1ccccc1` [JAK3 Inhibitor IV] registered a Zscore_1 of 0.2022, a Zscore_2 of 0.908 and a Zscore_AVG of 0.5551.

For `CC(C)(C)c1nc2c3cc[nH]c(=O)c3c3cc(F)ccc3c2[nH]1` [JAK Inhibitor I], the Zscore_1 is reported as −4.034, the Zscore_2 is −6.012 and the Zscore_AVG is on record as −5.023.

In turn, `O=C1c2ccccc2-c2n[nH]c3cccc1c23` [JNK Inhibitor II] came in with a Zscore_1 of 0.4426, a Zscore_2 of 0.5814 and a Zscore_AVG of 0.512.
